The numbers were not newly measured in patent US7618987B2, “Acylated piperidine derivatives as melanocortin 4-receptor agonists” (Merck & Co., Inc., priority 2004, dated 2009), which cites them from elsewhere.

Data set [1] has as its system males with psychogenic erectile dysfunction.
The conditions of data set [2]: in vivo, po.

Take “Ac-Nle-c[Asp-His-DPhe-Arg-Trp-Lys]-NH2 [MT-II]”: in data set [1] (in vivo), the adverse reactions observed entry is “nausea, flushing, loss of appetite, stretching, and yawning”; the duration of action result was “approximately 2.5 hours”; the “time to onset of erection” value is 10 to 20 min. Besides, the response rate in data set [1] (injected intramuscularly or subcutaneously) is given as 75%. In data set [2], the “absorption into the systemic circulation” value was “not absorbed into the systemic circulation”.
